Experimental findings from patent publication US11208412B2 (DAEGU-GYEONGBUK MEDICAL INNOVATION FOUNDATION, priority 2017, dated 2021) are described below.

Holding throughout (assay): Kinase selectivity, DiscoverX scanMAX Kinase assay panel (% control)
Holding throughout (assay type): binding

The target of assay [1] is T1, kinases of the scanMAX Kinase assay panel (Homo sapiens, UniProt Q16288).
T1 construct: purchased DiscoverX Co. (contract measurement) scanMAX Kinase assay panel
The following applies: kinase TRKC; 1 uM in DMSO. In a few lines:
(§1)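 Compounds were tested at 1 uM (in DMSO) against each panel kinase. % control was calculated as (compound − positive control)/(negative control − positive control)×100, where the positive control gives 0% and DMSO gives 100%. Activity toward a kinase was called at % control <35%.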

In assay [2] the target is T2, kinases of the scanMAX Kinase assay panel (Homo sapiens, UniProt Q9UPZ9).
T2 construct: purchased DiscoverX Co. (contract measurement) scanMAX Kinase assay panel
T2 sequence (Q9UPZ9 1-632): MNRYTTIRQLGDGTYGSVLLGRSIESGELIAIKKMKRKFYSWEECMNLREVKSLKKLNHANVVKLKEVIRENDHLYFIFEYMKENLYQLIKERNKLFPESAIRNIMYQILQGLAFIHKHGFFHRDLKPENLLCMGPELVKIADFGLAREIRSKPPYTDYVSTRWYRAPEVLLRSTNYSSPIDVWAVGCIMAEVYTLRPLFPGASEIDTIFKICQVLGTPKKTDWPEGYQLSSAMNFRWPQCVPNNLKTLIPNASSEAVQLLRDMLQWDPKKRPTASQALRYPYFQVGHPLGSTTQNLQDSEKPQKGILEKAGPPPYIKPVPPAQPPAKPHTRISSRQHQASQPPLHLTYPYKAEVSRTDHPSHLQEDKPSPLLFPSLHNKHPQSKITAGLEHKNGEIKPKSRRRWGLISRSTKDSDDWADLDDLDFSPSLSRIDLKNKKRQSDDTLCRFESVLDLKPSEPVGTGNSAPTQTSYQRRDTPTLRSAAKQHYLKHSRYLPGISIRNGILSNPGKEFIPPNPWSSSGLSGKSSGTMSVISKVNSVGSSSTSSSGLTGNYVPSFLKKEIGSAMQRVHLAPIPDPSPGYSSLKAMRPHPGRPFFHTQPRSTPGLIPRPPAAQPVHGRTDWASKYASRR
The following applies: ICK; 1 uM. In a few lines: as §1

Assay [3] has as its target T3, kinases of the scanMAX Kinase assay panel (Homo sapiens, UniProt Q15835).
T3 construct: purchased DiscoverX Co. (contract measurement) scanMAX Kinase assay panel
T3 sequence (Q15835 1-563): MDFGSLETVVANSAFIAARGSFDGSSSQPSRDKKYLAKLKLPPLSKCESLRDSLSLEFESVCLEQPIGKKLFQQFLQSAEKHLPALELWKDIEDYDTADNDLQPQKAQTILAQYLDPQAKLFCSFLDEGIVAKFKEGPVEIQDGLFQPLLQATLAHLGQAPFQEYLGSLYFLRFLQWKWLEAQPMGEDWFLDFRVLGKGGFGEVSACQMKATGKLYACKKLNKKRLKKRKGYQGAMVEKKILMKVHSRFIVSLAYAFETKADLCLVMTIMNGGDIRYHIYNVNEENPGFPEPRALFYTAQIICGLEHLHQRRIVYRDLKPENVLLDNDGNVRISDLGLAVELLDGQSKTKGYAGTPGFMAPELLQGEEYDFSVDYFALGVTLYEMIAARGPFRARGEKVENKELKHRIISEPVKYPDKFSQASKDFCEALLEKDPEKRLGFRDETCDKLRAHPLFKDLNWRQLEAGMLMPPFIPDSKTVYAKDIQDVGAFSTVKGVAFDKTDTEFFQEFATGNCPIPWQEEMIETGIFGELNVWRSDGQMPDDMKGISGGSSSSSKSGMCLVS
As to conditions: GRK1; 1 uM. In a few lines:
as §1

In assay [4] the target is T4, kinases of the scanMAX Kinase assay panel (Homo sapiens, UniProt P78368).
T4 construct: purchased DiscoverX Co. (contract measurement) scanMAX Kinase assay panel
T4 sequence (P78368 whole entry): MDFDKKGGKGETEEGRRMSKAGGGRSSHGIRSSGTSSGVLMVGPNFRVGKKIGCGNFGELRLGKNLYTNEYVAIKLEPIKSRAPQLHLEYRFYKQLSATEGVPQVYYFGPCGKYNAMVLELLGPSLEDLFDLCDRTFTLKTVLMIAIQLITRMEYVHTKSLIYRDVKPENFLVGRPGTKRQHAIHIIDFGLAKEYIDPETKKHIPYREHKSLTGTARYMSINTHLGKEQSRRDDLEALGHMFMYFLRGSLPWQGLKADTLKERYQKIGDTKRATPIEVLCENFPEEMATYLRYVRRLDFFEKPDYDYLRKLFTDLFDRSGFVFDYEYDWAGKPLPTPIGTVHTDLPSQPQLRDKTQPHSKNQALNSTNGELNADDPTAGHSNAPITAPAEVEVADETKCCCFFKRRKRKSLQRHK
The following applies: CSNK1G2; 1 uM. In a few lines:
as §1

Assay [5] deals with T5, kinases of the scanMAX Kinase assay panel (Homo sapiens, UniProt Q9UBF8).
T5 construct: purchased DiscoverX Co. (contract measurement) scanMAX Kinase assay panel
T5 sequence (Q9UBF8 whole entry): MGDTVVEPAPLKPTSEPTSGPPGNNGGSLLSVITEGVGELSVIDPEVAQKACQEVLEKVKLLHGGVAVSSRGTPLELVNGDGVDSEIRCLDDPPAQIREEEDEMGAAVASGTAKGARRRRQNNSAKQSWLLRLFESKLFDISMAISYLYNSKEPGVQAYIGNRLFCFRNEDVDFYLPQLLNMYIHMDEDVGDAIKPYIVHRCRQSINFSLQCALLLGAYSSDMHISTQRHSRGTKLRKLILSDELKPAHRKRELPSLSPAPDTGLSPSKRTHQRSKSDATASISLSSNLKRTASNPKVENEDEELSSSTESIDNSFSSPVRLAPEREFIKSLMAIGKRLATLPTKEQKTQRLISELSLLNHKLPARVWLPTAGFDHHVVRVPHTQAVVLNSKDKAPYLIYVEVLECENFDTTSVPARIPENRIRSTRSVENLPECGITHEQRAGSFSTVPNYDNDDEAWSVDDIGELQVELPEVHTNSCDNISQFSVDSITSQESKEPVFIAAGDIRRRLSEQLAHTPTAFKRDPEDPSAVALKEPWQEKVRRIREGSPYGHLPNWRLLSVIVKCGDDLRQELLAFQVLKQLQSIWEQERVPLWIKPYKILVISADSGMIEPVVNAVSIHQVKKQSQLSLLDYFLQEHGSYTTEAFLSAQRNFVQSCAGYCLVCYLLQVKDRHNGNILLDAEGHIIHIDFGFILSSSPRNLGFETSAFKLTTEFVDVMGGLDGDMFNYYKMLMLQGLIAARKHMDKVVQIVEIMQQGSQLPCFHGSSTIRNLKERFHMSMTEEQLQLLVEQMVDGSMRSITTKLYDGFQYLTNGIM
The following applies: PIK4CB; 1 uM. An outline of the steps:
as §1

Assay [6] addresses T6, kinases of the scanMAX Kinase assay panel (Homo sapiens, UniProt O60674).
T6 construct: purchased DiscoverX Co. (contract measurement) scanMAX Kinase assay panel
As to conditions: JAK2(JH1domain-catalytic); 1 uM. In a few lines: as §1

The target of assay [7] is T7, kinases of the scanMAX Kinase assay panel (Homo sapiens, UniProt Q16539).
T7 construct: purchased DiscoverX Co. (contract measurement) scanMAX Kinase assay panel
As to conditions: p38-alpha; 1 uM. In a few lines:
as §1

The target of assay [8] is T8, kinases of the scanMAX Kinase assay panel (Homo sapiens, UniProt Q9BYP7).
T8 construct: purchased DiscoverX Co. (contract measurement) scanMAX Kinase assay panel
As to conditions: kinase WNK3; 1 uM in DMSO. An outline of the steps:
as §1

For assay [9], the target named is T9, kinases of the scanMAX Kinase assay panel (Homo sapiens, UniProt P49336).
T9 construct: purchased DiscoverX Co. (contract measurement) scanMAX Kinase assay panel
T9 sequence (P49336 whole entry): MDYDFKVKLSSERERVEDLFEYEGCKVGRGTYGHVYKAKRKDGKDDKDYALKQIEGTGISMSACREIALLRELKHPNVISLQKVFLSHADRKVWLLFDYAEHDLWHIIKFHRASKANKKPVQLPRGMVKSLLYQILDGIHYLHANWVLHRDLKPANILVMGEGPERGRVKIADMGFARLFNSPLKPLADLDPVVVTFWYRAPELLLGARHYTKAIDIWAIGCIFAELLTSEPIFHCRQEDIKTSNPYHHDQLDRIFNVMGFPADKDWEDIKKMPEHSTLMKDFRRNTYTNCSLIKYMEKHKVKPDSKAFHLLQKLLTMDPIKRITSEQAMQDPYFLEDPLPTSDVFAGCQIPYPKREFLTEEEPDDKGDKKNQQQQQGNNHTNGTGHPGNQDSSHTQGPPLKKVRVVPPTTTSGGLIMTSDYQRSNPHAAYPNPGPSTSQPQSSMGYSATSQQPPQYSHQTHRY
As to conditions: CDK8; 1 uM. An outline of the steps: as §1

Assay [10] concerns the target T10, kinases of the scanMAX Kinase assay panel (Homo sapiens, UniProt P51812).
T10 construct: purchased DiscoverX Co. (contract measurement) scanMAX Kinase assay panel
The following applies: 1 uM in DMSO. An outline of the steps: as §1

Assay [11] has as its target T11, kinases of the scanMAX Kinase assay panel (Homo sapiens, UniProt O00506).
T11 construct: purchased DiscoverX Co. (contract measurement) scanMAX Kinase assay panel
As to conditions: kinase YSK1; 1 uM in DMSO. An outline of the steps:
as §1

Assay [12] has as its target T12, kinases of the scanMAX Kinase assay panel (Homo sapiens, UniProt P36897).
T12 construct: purchased DiscoverX Co. (contract measurement) scanMAX Kinase assay panel
T12 sequence (P36897 34-503): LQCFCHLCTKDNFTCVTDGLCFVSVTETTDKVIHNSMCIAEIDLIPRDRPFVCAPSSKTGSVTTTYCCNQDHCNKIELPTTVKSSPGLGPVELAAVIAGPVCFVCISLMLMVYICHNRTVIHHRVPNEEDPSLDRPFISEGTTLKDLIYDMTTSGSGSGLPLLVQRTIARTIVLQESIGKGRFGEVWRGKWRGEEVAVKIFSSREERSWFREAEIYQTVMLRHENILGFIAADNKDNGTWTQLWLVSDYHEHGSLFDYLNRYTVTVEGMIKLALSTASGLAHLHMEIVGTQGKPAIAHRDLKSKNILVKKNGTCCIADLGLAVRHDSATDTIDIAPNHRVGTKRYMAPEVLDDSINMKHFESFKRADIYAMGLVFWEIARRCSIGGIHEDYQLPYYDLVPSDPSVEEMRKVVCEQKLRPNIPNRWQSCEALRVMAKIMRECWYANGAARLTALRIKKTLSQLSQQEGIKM
The following applies: kinase TGFBR1; 1 uM in DMSO. In a few lines:
as §1

Where [13] appears, read: kinase RSK2(Kin.Dom.1-N-terminal), read-out: % control, RSK2(Kin.Dom.1-N-terminal).
Where [14] appears, read: kinase RSK2(Kin.Dom.2-C-terminal), read-out: % control, RSK2(Kin.Dom.2-C-terminal).

Where two headings read alike, the source gives them in different places.

T10 sequence (P51812 whole entry): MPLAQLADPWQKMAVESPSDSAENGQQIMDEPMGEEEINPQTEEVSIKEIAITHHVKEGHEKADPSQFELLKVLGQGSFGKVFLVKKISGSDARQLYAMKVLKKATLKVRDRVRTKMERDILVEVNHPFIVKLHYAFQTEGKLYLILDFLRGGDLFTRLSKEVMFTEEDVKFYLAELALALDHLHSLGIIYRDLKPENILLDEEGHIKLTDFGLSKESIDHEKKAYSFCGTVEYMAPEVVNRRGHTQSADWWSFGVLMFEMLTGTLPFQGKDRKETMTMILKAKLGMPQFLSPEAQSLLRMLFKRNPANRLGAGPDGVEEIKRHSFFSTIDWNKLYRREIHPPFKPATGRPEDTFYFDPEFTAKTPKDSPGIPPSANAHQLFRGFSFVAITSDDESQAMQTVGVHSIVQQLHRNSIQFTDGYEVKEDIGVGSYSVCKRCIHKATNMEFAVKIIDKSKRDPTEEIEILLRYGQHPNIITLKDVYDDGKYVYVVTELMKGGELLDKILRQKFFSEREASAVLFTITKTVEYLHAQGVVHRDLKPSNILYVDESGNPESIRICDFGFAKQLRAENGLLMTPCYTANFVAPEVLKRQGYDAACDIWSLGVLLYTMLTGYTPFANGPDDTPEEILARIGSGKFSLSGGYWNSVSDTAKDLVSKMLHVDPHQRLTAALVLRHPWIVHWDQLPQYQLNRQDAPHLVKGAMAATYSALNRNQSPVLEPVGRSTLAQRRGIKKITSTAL
T1 sequence (Q16288 32-839): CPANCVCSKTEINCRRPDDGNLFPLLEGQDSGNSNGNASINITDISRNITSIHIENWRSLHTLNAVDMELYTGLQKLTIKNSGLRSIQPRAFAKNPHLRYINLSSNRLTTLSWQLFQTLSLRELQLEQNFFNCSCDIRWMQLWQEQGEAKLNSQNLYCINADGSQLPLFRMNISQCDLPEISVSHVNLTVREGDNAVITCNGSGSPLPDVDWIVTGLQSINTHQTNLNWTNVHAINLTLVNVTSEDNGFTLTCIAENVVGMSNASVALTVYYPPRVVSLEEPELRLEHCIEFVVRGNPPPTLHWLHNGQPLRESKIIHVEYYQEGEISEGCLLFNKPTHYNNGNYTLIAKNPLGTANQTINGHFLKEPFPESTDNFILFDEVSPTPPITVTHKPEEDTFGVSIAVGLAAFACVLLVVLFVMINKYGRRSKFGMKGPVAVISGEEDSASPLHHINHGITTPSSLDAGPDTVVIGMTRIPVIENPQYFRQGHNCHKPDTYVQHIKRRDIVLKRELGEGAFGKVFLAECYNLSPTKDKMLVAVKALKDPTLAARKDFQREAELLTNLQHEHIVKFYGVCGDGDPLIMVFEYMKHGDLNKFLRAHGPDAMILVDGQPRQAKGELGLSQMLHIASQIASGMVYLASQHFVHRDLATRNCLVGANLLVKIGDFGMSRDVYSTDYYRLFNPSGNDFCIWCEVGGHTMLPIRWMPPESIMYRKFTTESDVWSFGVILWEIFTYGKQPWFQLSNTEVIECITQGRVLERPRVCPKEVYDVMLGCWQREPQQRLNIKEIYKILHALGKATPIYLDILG
T6 sequence (O60674 whole entry): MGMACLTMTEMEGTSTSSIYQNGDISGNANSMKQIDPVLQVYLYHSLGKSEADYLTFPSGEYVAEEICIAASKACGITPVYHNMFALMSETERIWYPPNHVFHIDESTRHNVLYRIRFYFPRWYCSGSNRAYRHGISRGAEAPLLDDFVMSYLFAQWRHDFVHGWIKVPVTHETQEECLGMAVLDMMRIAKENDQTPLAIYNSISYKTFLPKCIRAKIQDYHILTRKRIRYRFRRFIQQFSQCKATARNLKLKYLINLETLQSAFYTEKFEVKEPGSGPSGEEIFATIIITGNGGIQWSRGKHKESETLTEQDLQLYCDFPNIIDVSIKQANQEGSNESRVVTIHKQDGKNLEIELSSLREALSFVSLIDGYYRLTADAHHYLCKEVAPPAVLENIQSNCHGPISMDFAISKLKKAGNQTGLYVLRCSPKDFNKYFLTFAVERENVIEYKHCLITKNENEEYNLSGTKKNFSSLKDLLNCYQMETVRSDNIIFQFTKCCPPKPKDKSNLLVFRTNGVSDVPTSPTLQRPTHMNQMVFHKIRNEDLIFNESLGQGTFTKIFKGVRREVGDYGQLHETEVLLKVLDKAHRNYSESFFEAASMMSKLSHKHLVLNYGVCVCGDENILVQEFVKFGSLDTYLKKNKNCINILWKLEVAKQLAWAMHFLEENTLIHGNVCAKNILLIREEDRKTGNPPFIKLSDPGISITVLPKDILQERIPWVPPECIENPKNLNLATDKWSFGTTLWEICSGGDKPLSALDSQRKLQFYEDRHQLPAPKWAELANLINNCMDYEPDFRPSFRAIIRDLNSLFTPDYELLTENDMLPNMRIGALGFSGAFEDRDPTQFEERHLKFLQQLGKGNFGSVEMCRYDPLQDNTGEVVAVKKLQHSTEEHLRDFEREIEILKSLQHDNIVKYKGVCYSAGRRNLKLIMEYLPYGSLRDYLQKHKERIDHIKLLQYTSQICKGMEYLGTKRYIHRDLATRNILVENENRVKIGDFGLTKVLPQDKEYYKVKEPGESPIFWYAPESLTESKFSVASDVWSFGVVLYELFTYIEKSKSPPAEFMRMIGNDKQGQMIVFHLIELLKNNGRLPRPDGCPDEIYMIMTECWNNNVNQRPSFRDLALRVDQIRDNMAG
T11 sequence (O00506 whole entry): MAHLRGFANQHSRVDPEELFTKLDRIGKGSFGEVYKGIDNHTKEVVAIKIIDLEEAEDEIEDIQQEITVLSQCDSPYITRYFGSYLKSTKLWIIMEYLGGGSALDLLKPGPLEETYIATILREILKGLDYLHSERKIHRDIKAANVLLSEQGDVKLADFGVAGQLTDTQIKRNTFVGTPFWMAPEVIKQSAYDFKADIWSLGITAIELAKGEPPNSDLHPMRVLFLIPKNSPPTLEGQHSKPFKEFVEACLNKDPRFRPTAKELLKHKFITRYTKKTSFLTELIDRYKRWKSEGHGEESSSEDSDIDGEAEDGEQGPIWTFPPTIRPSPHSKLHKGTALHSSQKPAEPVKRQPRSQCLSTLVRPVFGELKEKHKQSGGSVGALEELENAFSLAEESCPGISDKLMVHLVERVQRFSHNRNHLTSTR

As for `CC1(Nc2nc(Nc3cnn([C@H]4CCN(C5COC5)C[C@@H]4F)c3Cl)nc3[nH]cc(C#N)c23)CC1` [Example 52, 2-((5-chloro-1-((3S,4S)-3-fluoro-1-(oxetane-3-yl)piperidine-4-yl)-1H-pyrazole-4-yl)amino)((1-methylcyclopropyl)amino)-7H-pyrrolo[2,3-d]pyrimidine-5-carbonitrile], the remaining binding at 1 µM in [1] was determined as 30%; in [2], 71%; in assay [3], 36%; in assay [4] it was 0.1%; in assay [5], 60%; in [6] it was 0%. Moreover, the remaining binding at 1 µM was determined as 91% in assay [7]; 55% in assay [8]; 76% in [9]; 0.55% in assay [10] (setting [13]); 100% in assay [10] (setting [14]); 28% in [11]. In addition, the remaining binding at 1 µM in assay [12] is 91%.
With `CCNc1nc(Nc2ccc(C(=O)N3CCC(N4CCOCC4)CC3)cc2OC)nc2[nH]cc(C(F)(F)F)c12` [Example 104, (4-((4-(ethylamino)-5-(trifluoromethyl)-7H-pyrrolo[2,3-d]pyrimidine-2-yl)amino)-3-methoxyphenyl)(4-morpholinopiperidine-1-yl)methanone], the remaining binding at 1 µM in assay [1] was 100%; in assay [2], 96%; in [3], 67%; in assay [4] it was 100%; in assay [5] it was 99%; in [6], 100%. The remaining binding at 1 µM in [7] was determined as 96%; in assay [8], 100%; in assay [9] it was 86%; in assay [10] (setting [13]) it was 100%; in assay [10] (setting [14]), 71%; in assay [11] it was 81%. Moreover, in assay [12], the remaining binding at 1 µM was determined as 100%.
As for `CNc1nc(Nc2ccc(C(=O)N3CCOCC3)cc2OC)nc2[nH]cc(C#N)c12` [Example 1, 2-((2-methoxy-4-(morpholine-4-carbonyl)phenyl)amino)-4-(methylamino)-7H-pyrrolo[2,3-d]pyrimidine-5-carbonitrile], the remaining binding at 1 µM in assay [1] is 60%; in assay [2], 73%; in [3], 72%; in assay [4], 58%; in [5], 61%; in [6], 83%. The remaining binding at 1 µM was 94% in assay [7]; 68% in assay [8]; 100% in assay [9]; 68% in assay [10] (setting [13]); 66% in assay [10] (setting [14]); 97% in assay [11]. Besides, the remaining binding at 1 µM in assay [12] stood at 5.1%.
